Key:
[1] = (§1) Evaluation of pharmacokinetic parameters for Olanzapine after single oral dose of Olanzapine tablet.; assay type: ADME, organism-based; settings: human, in vivo, regimen Single dose
Homo sapiens = assay: as §1; assay type: ADME, organism-based; settings: in vivo, po, dosed compound id 18, dosed compound name OLANZAPINE, regimen Single dose, tissue Plasma
[2] = dosed compound id 18, dosed compound name OLANZAPINE, tissue Plasma

## Cc1cc2c(s1)Nc1ccccc1N=C2N1CCN(C)CC1 [OLANZAPINE]
[1]; [2]
  Tmax: 6 h
  half-life: 30 h
[1]; dosed compound id 18, dosed compound name OLANZAPINE, tissue Plasma, read-out: CL(app) (converted)
  CL/F: 417 mL/min
[1]; dosed compound id 180, dosed compound name C-14 OLANZAPINE, tissue Urine, read-out: Excretion
  dose excreted: 7%
Homo sapiens
  Vd: 1000 L

Source: ChEMBL document CHEMBL3832065, “DailyMed|setid=d976599a-0ee0-4fa4-afe6-bdfbca570afe | OLANZAPINE - olanzapine tablet, film coated|Rebel Distributors Corp”
